Laboratory results from patent US11655216B2 (priority 2016, dated 2023).
Where two headings read alike, the source gives them in different places.

Experiments:
[1] = biological target: T1, glutathione-S-transferase (GST) tagged LXRalpha LBD (ligand binding domain) (Homo sapiens, UniProt Q13133); assay: biochemical
T1 construct: purchased Invitrogen pv4655
T1 sequence (Q13133 209-447 limits assumed): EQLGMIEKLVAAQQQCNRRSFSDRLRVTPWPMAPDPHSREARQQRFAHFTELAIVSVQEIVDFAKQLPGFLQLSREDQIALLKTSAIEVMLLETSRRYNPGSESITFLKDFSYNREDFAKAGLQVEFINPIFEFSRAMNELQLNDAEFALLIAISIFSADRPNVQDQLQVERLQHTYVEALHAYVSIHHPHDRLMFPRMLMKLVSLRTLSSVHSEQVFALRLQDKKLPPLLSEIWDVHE
Summary of the method: (§1)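 LXR alpha- or beta-LBD added to test compounds, then fluorescein-labelled coactivator peptide plus terbium anti-GST antibody. After incubation at room temperature, TR-FRET read on a filter-based plate reader.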

[2] = biological target: T2, glutathione-S-transferase (GST) tagged LXRbeta LBD (ligand binding domain) (Homo sapiens, UniProt P55055); assay: LanthaScreen TR-FRET Liver X Receptor Coactivator Assay, LXR beta; format: biochemical; details: for EC50: LXR beta IP, potency (Inflection Point), compound-induced co-activator recruitment, TR-FRET; for Emax: read-out: LXR beta actiivty at max dose, efficacy (% Emax) in relation to reference dual agonist T0901317
T2 construct: purchased Invitrogen pv4658
T2 sequence (P55055 222-460 limits assumed): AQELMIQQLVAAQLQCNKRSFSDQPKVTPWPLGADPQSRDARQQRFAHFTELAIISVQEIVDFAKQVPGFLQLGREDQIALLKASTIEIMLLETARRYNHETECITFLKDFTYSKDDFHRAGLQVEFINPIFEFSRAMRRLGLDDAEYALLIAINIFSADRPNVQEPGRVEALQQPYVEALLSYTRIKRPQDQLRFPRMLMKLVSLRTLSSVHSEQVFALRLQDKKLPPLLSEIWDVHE
Summary of the method: as §1

[3] = potency (Inflection Point), compound-induced co-activator recruitment, TR-FRET
[4] = read-out: LXR alpha actiivty at max dose, efficacy (% Emax) in relation to reference dual agonist T0901317
[5] = LXR alpha IP, potency (Inflection Point), compound-induced co-activator recruitment, TR-FRET

SMILES	LXR alpha IP [1, 3]	Emax [1, 4] [%]	EC50 [2] [µM]	Emax [2] [%]	EC50 [1, 5] [µM]	Emax ([1]; efficacy (% Emax) in relation to reference dual agonist T0901317, read-out: LXR alpha actiivty at max dose) [%]	EC50 ([1]; potency (Inflection Point), compound-induced co-activator recruitment, TR-FRET, read-out: LXR alpha IP) [µM]	EC50 ([1]; LXR alpha IP) [µM]	Emax ([1]; read-out: LXR alpha actiivty at max dose) [%]
CN(C)C(=O)c1ccc(OCCC2CC23CCN(C(=O)C(C)(C)c2csc(N)n2)CC3)cc1Cl (single isomer, unassigned) [Example 12-10, (R or S)-4-(2-(6-(2-(2-aminothiazol-4-yl)-2-methylpropanoyl)-6-azaspiro[2.5]octan-1-yl)ethoxy)-2-chloro-N,N-dimethylbenzamide]	–	21	0.608	61	3.74	–	–	–	–
CN(C)C(=O)c1ccc(OCCC2CC23CCN(C(=O)C2(c4cc(F)ccc4F)CCC2)CC3)cc1Cl (single isomer, unassigned) [Example 12-11, (S or R)-2-chloro-4-(2-(6-(1-(2,5-difluorophenyl)cyclobutanecarbonyl)-6-azaspiro[2.5]octan-1-yl)ethoxy)-N,N-dimethylbenzamide]	–	24	0.012	87	0.447	–	–	–	–
CN(C)C(=O)c1ccc(OCCC2CC23CCN(C(=O)C2(c4ccc(Br)cc4)COC2)CC3)cc1Cl (single isomer, unassigned) [Example 12-12, (S or R)-4-(2-(6-(3-(4-bromophenyl)oxetane-3-carbonyl)-6-azaspiro[2.5]octan-1-yl)ethoxy)-2-chloro-N,N-dimethylbenzamide]	No IP	28	0.081	60	–	–	–	–	–
CCC(C)(C(=O)N1CCC2(CC1)C[C@H]2CCOc1ccc(C(=O)N(C)C)c(Cl)c1)c1ccccc1 (single isomer, unassigned) [Example 12-13, 2-chloro-N,N-dimethyl-4-(2-((1S or 1R)-6-(2-methyl-2-phenylbutanoyl)-6-azaspiro[2.5]octan-1-yl)ethoxy)benzamide]	–	26	0.017	72	0.505	–	–	–	–
CN(C)C(=O)c1ccc(OCC[C@@H]2CC23CCN(C(=O)C(O)(c2cccc4c2OC(F)(F)O4)C(F)(F)F)CC3)cc1Cl (single isomer, unassigned) [Example 12-16, 2-chloro-4-(2-((1S or 1R)-6-(2-(2,2-difluorobenzo[d][1, 3]dioxol-4-yl)-3,3,3-trifluoro-2-hydroxypropanoyl)-6-azaspiro[2.5]octan-1-yl)ethoxy)-N,N-dimethylbenzamide]	No IP	8	0.026	33	–	–	–	–	–
CN(C)C(=O)c1ccc(OCC[C@@H]2CC23CCN(C(=O)C2(c4ccccc4Br)CCC2)CC3)cc1Cl (single isomer, unassigned) [Example 12-17, (S or R)-4-(2-(6-(1-(2-bromophenyl)cyclobutanecarbonyl)-6-azaspiro[2.5]octan-1-yl)ethoxy)-2-chloro-N,N-dimethylbenzamide]	–	35	0.009	79	0.166	–	–	–	–
CN(C)C(=O)c1ccc(OCCC2CC23CCN(C(=O)C(C)(C)c2cccc(Br)n2)CC3)cc1Cl (single isomer, unassigned) [Example 12-20, (S or R)-4-(2-(6-(2-(6-bromopyridin-2-yl)-2-methylpropanoyl)-6-azaspiro[2.5]octan-1-yl)ethoxy)-2-chloro-N,N-dimethylbenzamide]	No IP	0	0.047	32	–	–	–	–	–
CN(C)C(=O)c1ccc(OCC[C@@H]2CC23CCN(C(=O)[C@](N)(c2ccccc2)C(F)(F)F)CC3)cc1Cl (single isomer, unassigned) [Example 12-21, 4-(2-((S or R)-6-((R or S)-2-amino-3,3,3-trifluoro-2-phenylpropanoyl)-6-azaspiro[2.5]octan-1-yl)ethoxy)-2-chloro-N,N-dimethylbenzamide]	–	23	0.042	47	1.4	–	–	–	–
CC(C[C@H]1CC12CCN(C(=O)C1(c3ccccc3)CCC1)CC2)Oc1ccc(C(=O)N(C)C)c(Cl)c1 (single isomer, unassigned) [Example 13-1, 2-chloro-N,N-dimethyl-4-((S or R)-1-((R or S)-6-(1-phenylcyclobutanecarbonyl)-6-azaspiro[2.5]octan-1-yl)propan-2-yloxy)benzamide]	–	–	0.087	110	–	25	0.762	–	–
CN(C)C(=O)c1ccc(OCCCC2CC23CCN(C(=O)C2(c4ccccc4)CCCC2)CC3)cc1Cl (single isomer, unassigned) [Example 14-2, (R or S)-2-chloro-N,N-dimethyl-4-(3-(6-(1-phenylcyclopentanecarbonyl)-6-azaspiro[2.5]octan-1-yl)propoxy)benzamide]	–	17	0.028	86	0.424	–	–	–	–
COc1ccccc1[C@@](O)(C(=O)N1CCC2(CC1)C[C@H]2CCCOc1ccc(C(=O)N(C)C)c(Cl)c1)C(F)(F)F (single isomer, unassigned) [Example 14-3, 2-chloro-N,N-dimethyl-4-(3-((R or S)-6-((R or S)-3,3,3-trifluoro-2-hydroxy-2-(2-methoxyphenyl)propanoyl)-6-azaspiro[2.5]octan-1-yl)propoxy)benzamide]	No IP	6	0.041	81	–	–	–	–	–
COc1cccc([C@](O)(C(=O)N2CCC3(CC2)C[C@H]3CCCOc2ccc(C(=O)N(C)C)c(Cl)c2)C(F)(F)F)c1 (single isomer, unassigned) [Example 14-4, 2-chloro-N,N-dimethyl-4-(3-((R or S)-6-((S or R)-3,3,3-trifluoro-2-hydroxy-2-(3-methoxyphenyl)propanoyl)-6-azaspiro[2.5]octan-1-yl)propoxy)benzamide]	No IP	0	0.083	80	–	–	–	–	–

Continued by falling EC50 [2], values first:

LXR alpha IP [1, 3]	Emax [1, 4] [%]	EC50 [2] [µM]	Emax [2] [%]	EC50 [1, 5] [µM]	Emax ([1]; efficacy (% Emax) in relation to reference dual agonist T0901317, read-out: LXR alpha actiivty at max dose) [%]	EC50 ([1]; potency (Inflection Point), compound-induced co-activator recruitment, TR-FRET, read-out: LXR alpha IP) [µM]	EC50 ([1]; LXR alpha IP) [µM]	Emax ([1]; read-out: LXR alpha actiivty at max dose) [%]	SMILES
No IP	14	0.426	12	–	–	–	–	–	CN(C)C(=O)c1ccc(OCCC2CC23CCN(C(=O)C2(c4cncnc4)CCC2)CC3)cc1Cl (single isomer, unassigned) [Example 12-19, (S or R)-2-chloro-N,N-dimethyl-4-(2-(6-(1-(pyrimidin-5-yl)cyclobutanecarbonyl)-6-azaspiro[2.5]octan-1-yl)ethoxy)benzamide]
–	27	0.08	26	1.18	–	–	–	–	CN(C)C(=O)c1ccc(OCCC2CC23CCN(S(=O)(=O)C(C)(C)c2ccccc2)CC3)cc1Cl (single isomer, unassigned) [Example 12-18, (S or R)-2-chloro-N,N-dimethyl-4-(2-(6-(2-phenylpropan-2-ylsulfonyl)-6-azaspiro[2.5]octan-1-yl)ethoxy)benzamide]
–	–	0.065	99	–	–	–	0.765	9	CN(C)C(=O)c1ccc(OCCC[C@H]2CC23CCN(C(=O)[C@@](O)(c2ccccc2)C(F)(F)F)CC3)cc1Cl (single isomer, unassigned) [Example 14-1, 2-chloro-N,N-dimethyl-4-(3-((S or R)-6-((S or R)-3,3,3-trifluoro-2-hydroxy-2-phenylpropanoyl)-6-azaspiro[2.5]octan-1-yl)propoxy)benzamide]
–	37	0.062	79	2.09	–	–	–	–	CC(C)[C@@](O)(C(=O)N1CCC2(CC1)C[C@H]2CCOc1ccc(C(=O)N(C)C)c(Cl)c1)C(F)(F)F (single isomer, unassigned) [Example 12-15, 2-chloro-4-(2-((S or R)-6-((R or S)-2-hydroxy-3-methyl-2-(trifluoromethyl)butanoyl)-6-azaspiro[2.5]octan-1-yl)ethoxy)-N,N-dimethylbenzamide]
No IP	0	0.05	65	–	–	–	–	–	CN(C)C(=O)c1ccc(OCC[C@H]2CC23CCN(C(=O)[C@](N)(c2ccccc2)C(F)(F)F)CC3)cc1Cl (single isomer, unassigned) [Example 12-9, 4-(2-((R or S)-6-((R or S)-2-amino-3,3,3-trifluoro-2-phenylpropanoyl)-6-azaspiro[2.5]octan-1-yl)ethoxy)-2-chloro-N,N-dimethylbenzamide]
–	20	0.022	74	0.343	–	–	–	–	CN(C)C(=O)c1ccc(OCC[C@@H]2CC23CCN(C(=O)C(C)(c2ccccc2)C2CCC2)CC3)cc1Cl (single isomer, unassigned) [Example 12-14, 2-chloro-4-(2-((S or R)-6-((S or R)-2-cyclobutyl-2-phenylpropanoyl)-6-azaspiro[2.5]octan-1-yl)ethoxy)-N,N-dimethylbenzamide]
